{"source": "patent US9415046B2", "about": "“Compositions and methods for inhibiting inflammation from and rejection of biomaterials and other methods” (YALE UNIVERSITY, priority 2009, dated 2016)", "format_in_all_cases": "in vivo", "key": {"wild-type mice [1]": {"tested_on": "wild-type mice", "experiment": "APAP (acetaminophen) induced liver inflammation, liver injury and mortality", "conditions": "by down regulation of pro-inflammatory cytokines", "protocol": "APAP (Sigma, Mo.) solution was made fresh for each experiment in PBS at 20 mg/ml and heated in a water bath to 55° C. to dissolve. APAP was dosed at 500 mg/kg and injected I.P after 15 hrs of starvation. Animals were euthanized by ketamine/xylazine injection at 12 hours for collection of serum, isolation of liver lymphocytes or collection of liver tissue for histology, or they were observed every four hours for 72 hours until they reached criteria for euthanasia (lack of response to stimuli or lack of righting reflex). FIGS. 3A and B show less hemorrhage and cell death in the livers of mice lacking TLR9 compared to wild-type and FIGS. 3C and D show a similar affect of TLR7. […] The data was generated by a single ip injection of APAP at a dose of 500 mg/kg. Data in Figures A to D was generated 12 hours after APAP and E and F is over a 3 day period.\nData was generated 12 hours after injection of APAP. […] The data was generated over 72 hours (3 days). […] Data was generated from 23 hours after injection of APAP."}, "wild-type mice [2]": {"tested_on": "wild-type mice", "experiment": "Foreign body reaction to subcutaneously implanted 6 mm silicone disc", "conditions": "silicone implant, one month, aspirin 60 mg/ml in drinking water, P<0.05 compared to no ASA, FIG. 7", "protocol": "Two models of the foreign body reaction were tested. In the first model, injection of 150 micron polystyrene beads into the abdominal cavity of C57BL/6 was followed by analysis of cellular infiltrate 24 hours later. In the second model, implantation of a 6 mm disc of silicone subcutaneously was followed by analysis of the foreign body reaction about one month later. The above two models were performed on mice on normal drinking water or with aspirin (60 mg/ml). […] The experiment evidenced that the cellular infiltrate at 24 hours was comprised principally of immune cells (neutrophils and macrophages). […] A 6 mm disc of silicone was implanted subcutaneously in experimental mice (see above), followed by analysis of the foreign body reaction around one month later. The mice were placed on normal drinking water or water with aspirin at a concentration of 60 mg/ml. […] Wild-type mice were implanted with a silicone capsule on the side of the muscle and on the side of the skin. The mice were either given regular drinking water or drinking water containing 60 mg/ml aspirin. After one month, the mice were then analyzed to determine if there was an impact on the foreign body reaction which occurred as a consequence of implanting the silicone capsulate."}, "C57BL/6 mice": {"tested_on": "C57BL/6 mice", "experiment": "Foreign body reaction to 150 micron polystyrene beads injected into the abdominal cavity", "conditions": "24 hours, FIG. 2", "protocol": "Two models of the foreign body reaction were tested. In the first model, injection of 150 micron polystyrene beads into the abdominal cavity of C57BL/6 was followed by analysis of cellular infiltrate 24 hours later. In the second model, implantation of a 6 mm disc of silicone subcutaneously was followed by analysis of the foreign body reaction about one month later. The above two models were performed on mice on normal drinking water or with aspirin (60 mg/ml). […] The experiment evidenced that the cellular infiltrate at 24 hours was comprised principally of immune cells (neutrophils and macrophages)."}}, "note": "“Also recorded” adds a separate entry of the source."}
{"smiles": "CC(=O)Oc1ccccc1C(=O)O", "note": "[aspirin, acetylsalicylic acid]", "values": [{"measurement": "effect on acetaminophen-induced liver injury", "setting": "wild-type mice [1]", "result": "protective effect"}, {"measurement": "thickness of the foreign body reaction capsule on the side of the muscle and on the side of the skin", "setting": "wild-type mice [2]", "result": "significant reduction"}, {"measurement": "foreign body reaction to polystyrene beads (number of cells in cellular infiltrate)", "setting": "C57BL/6 mice; continuous aspirin in drinking water (60 mg/ml)", "result": "substantially diminished; also recorded: significantly reduced"}, {"measurement": "composition of the cellular infiltrate (neutrophils and macrophages)", "setting": "C57BL/6 mice; continuous aspirin", "result": "not significantly altered"}]}
